# From US20260191194A1, “OXABICYCLOALKANE COMPOUNDS, PREPARATION METHOD THEREFOR, AND HERBICIDAL COMPOSITION AND USE THEREOF” (QINGDAO KINGAGROOT CHEMICAL COMPOUND CO., LTD., priority 2022, published 2026)
# Legend:
# [1] = system: Rice; details: japonica, in vivo, 7 days
# Experimental: In addition, after being loaded into the 1/1,000,000 ha pot, the rice field soil was leveled to keep the water storage at a depth of 2-3 cm. The rice (japonica rice) at 3-leaf stage was transplanted at a transplanting depth of 2-3 cm the next day. The compounds of the present invention were treated in the same manner as above on the 3rd day after the transplantation.
# The effects were evaluated according to the above-mentioned activity level criteria.
# [2] = system: Echinochloa crus-galli var. austrojaponensis; experiment: Activity test of compositions, early post-emergence foliage spray (F-EP); type: in vivo; details: fresh weight inhibition rate 21 days after treatment
# Experimental: (§1) The required active ingredient B was purchased from a reagent company or synthesized by a known method. The technical materials were all dissolved with acetone solvents and diluted with an aqueous solution of 0.1% Tween 80 emulsifier, which were to be used immediately after dilution.
# (§2) Weeds were cultivated by a pot culture method. […] Weed seeds with plump and uniform grains were selected, soaked in lukewarm water at 25° C. for 6 hours, and accelerated to germinate in a 28° C. biochemical incubator (in darkness). The weed seeds that had just germinated were evenly placed on the surface of the soil and then covered with 0.5-1 cm soil according to the sizes of seeds.
# (§3) The culture was carried out in a controllable sunlight greenhouse at 20 to 30° C., in natural light, and with relative humidity of 57% to 72%.
# (§4) Each treatment was repeated 4 times. Four pots with 20 weed seeds sowed per pot were treated each time.
# (§5) The agents were used once in total in the experiment. In the stage of 1-2 leaves, the weeds were thinned out to maintain 10 strains per treatment for later use.
# (§6) The well-cultured test materials were evenly placed on a platform with an area of 0.5 m^2, and foliage spraying was carried out by the 3WP-2000-type walking spray tower at a dosage of 450 kg/ha and a spray pressure of 0.3 MPa. After all the solution was sprayed, the air valve was closed, and 30 seconds later, the door of the spray tower was opened, and the nutritional bowl was taken out. Then the air valve was opened, and the spray tube was cleaned by spraying 50 ml of water. The test materials were transferred to and routinely cultured in a greenhouse after the treatment.
# (§7) A method for investigating absolute numbers was employed. Whole seedlings of survival weeds were cut off with a blade along the soil surface, and the fresh weight of the weeds was weighed using an analytical balance. For dead weeds, the fresh weight thereof was zero.
# (§8) The investigation was performed 21 days after the treatment for once in total.
# (§9) The theoretical fresh weight inhibition rate of a mixed combination of each treatment was calculated by the Gowing method (E0=X+Y−X*Y/100). […] An optimal ratio was determined according to the actual control effects, characteristics of herbicides, and balance of the formulation. In the formula, X represents the fresh weight inhibition rate of the active ingredient A in a dosage of P; Y represents the fresh weight inhibition rate of the active ingredient B in a dosage of Q. The statistical results are shown in Table 4.
# [3] = system: Soliva anthemifolia; experiment: as above; type: in vivo; details: A alone 60 g a.i./ha, fresh weight inhibition rate 21 days after treatment
# Experimental: as §1, §2, §3, §4, §5, §6, §7, §8, §9
# [4] = system: Cyperus glomeratus; experiment: as above; type: in vivo; details: A alone 30 g a.i./ha, fresh weight inhibition rate 21 days after treatment
# Experimental: as §1, §2, §3, §4, §5, §6, §7, §8, §9
# [5] = system: Echinochloa glabrescens; experiment: as above; type: in vivo; details: A alone 30 g a.i./ha, fresh weight inhibition rate 21 days after treatment
# Experimental: as §1, §2, §3, §4, §5, §6, §7, §8, §9
# [6] = system: Echinochloa phyllopogon; experiment: Weed control effect evaluation in rice fields; type: in vivo; details: activity level, 0.5-leaf stage, flooded pot, 14th day, weed resistant to pyrazosulfuron
# Excerpt: (§10) After rice field soil was loaded into a 1/1,000,000 ha pot, the seeds of Echinochloa crusgalli, Echinochloa phyllopogon, Monochoria vaginalis, Leptochloa chinensis, and Ludwigia prostrata were sowed and gently covered with soil, then left to stand in a greenhouse with water storage of 0.5-1 cm deep. The tuber of Sagittaria trifolia was planted in the next day or 2 days later. The water storage was kept at a depth of 3-4 cm thereafter. When the Echinochloa crusgalli, Echinochloa phyllopogon, and Leptochloa chinensis reached their 0.5-leaf stages and the Sagittaria trifolia reached the time point of the primary leaf stage, WP or SC aqueous dilutions of the compounds of the present invention formulated according to common formulation methods were homogeneously dripped to the specified effective amount using pipettes for treatment.
# [7] = system: Echinochloa crusgalli; experiment: Weed control effect evaluation in rice fields; type: in vivo; details: activity level, 0.5-leaf stage, flooded pot, 14th day, weed resistant to pyrazosulfuron
# Excerpt: as §10
# [8] = system: Digitaria ischaemum; experiment: Activity test of compositions, soil sealing treatment (S); type: in vivo; details: A alone 60 g a.i./ha, fresh weight inhibition rate 21 days after treatment
# Excerpt: as §1
# The test soil was quantitatively filled to 3/4 of the pot, and then watered from the bottom of the pot to completely wet the soil to saturation. The test weed seeds were accelerated to just germinate, and then evenly and quantitatively sowed on the soil surface, covered with 0.5-1 cm soil according to the sizes of the seeds, and ready for use 72 hours after sowing.
# as §4
# as §6, with “well-sowed” for “well-cultured”, “water.” for “water. The test materials were transferred to and routinely cultured in a greenhouse after the treatment.”
# as §7, §8, §9
# [9] = system: Cotton; details: in vivo, 4 weeks
# Excerpt: (§11) Monocotyledonous and dicotyledonous weed seeds as well as major crop seeds (wheat, corn, rice, soybean, peanut, cotton, oilseed rape, millet, and sorghum) were placed in plastic pots filled with soil, and then covered with 0.5-2 cm of soil. The test compounds of the present invention were individually dissolved with acetone, then added with Tween 80, diluted with a certain amount of water to obtain a solution of a certain concentration, and sprayed immediately after sowing. After drug application, cultivation was conducted for 4 weeks in a greenhouse and then the experimental results were observed.
# [10] = system: Corn; details: in vivo, 4 weeks
# Excerpt: as §11
# [11] = system: Soybean; details: in vivo, 4 weeks
# Excerpt: as §11
# [12] = system: Peanut; details: in vivo, 4 weeks
# Excerpt: as §11
# [13] = system: Cyperus glomeratus; experiment: Activity test of compositions, soil sealing treatment (S); type: in vivo; details: A alone 30 g a.i./ha, fresh weight inhibition rate 21 days after treatment
# Experimental: as §1
# (§12) Weeds were cultivated in a controllable sunlight greenhouse at 20 to 30° C., in natural light, and with relative humidity of 57% to 72%. […] The test soil was quantitatively filled to 3/4 of the pot, and then watered from the bottom of the pot to completely wet the soil to saturation. The test weed seeds were accelerated to just germinate, and then evenly and quantitatively sowed on the soil surface, covered with 0.5-1 cm soil according to the sizes of the seeds, and ready for use 72 hours after sowing.
# as §4
# as §6, with “well-sowed” for “well-cultured”, “water.” for “water. The test materials were transferred to and routinely cultured in a greenhouse after the treatment.”
# as §7, §8, §9
# [14] = system: Arivela viscosa; experiment: as above; type: in vivo; details: A alone 60 g a.i./ha, fresh weight inhibition rate 21 days after treatment
# Experimental: as §1, §12, §4
# as §6, with “well-sowed” for “well-cultured”, “water.” for “water. The test materials were transferred to and routinely cultured in a greenhouse after the treatment.”
# as §7, §8, §9
# [15] = system: Echinochloa glabrescens; experiment: as above; type: in vivo; details: A alone 30 g a.i./ha, fresh weight inhibition rate 21 days after treatment
# Experimental: as §1, §12, §4
# as §6, with “well-sowed” for “well-cultured”, “water.” for “water. The test materials were transferred to and routinely cultured in a greenhouse after the treatment.”
# as §7, §8, §9
# [16] = system: Oxybasis glauca; experiment: as above; type: in vivo; details: A alone 60 g a.i./ha, fresh weight inhibition rate 21 days after treatment
# Experimental: as §1, §12, §4
# as §6, with “well-sowed” for “well-cultured”, “water.” for “water. The test materials were transferred to and routinely cultured in a greenhouse after the treatment.”
# as §7, §8, §9
# [17] = system: Setaria viridis; experiment: Pre-emergence test experiment; type: in vivo; details: activity level, sprayed after sowing, 4 weeks
# Excerpt: as §11
# [18] = system: Beckmannia syzigachne; experiment: Pre-emergence test experiment; type: in vivo; details: activity level, sprayed after sowing, 4 weeks
# Excerpt: as §11
# [19] = system: Direct sowing rice; details: in vivo, 7 days
# Experimental: To simulate a field of direct sowing rice, a 5-cm water layer was added to the container first, fully mixed with mud to form slurry, and then rice seeds were scattered in. After the slurry became clear, the water layer was removed. The soil was kept moist and applied with drug solution evenly by spraying. The soil was rehydrated to 3-cm deep 3-4 days after drug application.
# The doses of the compounds used in the above-mentioned experiments were 3.75, 7.5, 15, 30, 60, and 120 g a.i./ha. […] The effects were evaluated according to the above-mentioned activity level criteria.
# [20] = system: Wheat; details: in vivo
# Excerpt: as §11
# [21] = system: Lolium perenne; experiment: Pre-emergence test experiment; type: in vivo; details: activity level (fresh weight growth control rate), sprayed after sowing, 4 weeks
# Excerpt: as §11
structure (smiles),measurement,setting,value
CC(C)C12CCC(C)(O1)C(OCc1c(F)cccc1Br)C2 (racemic) [Compound 1],Rice 30 g a.i./ha,[1],0
same,Control effect of A applied alone in a corresponding dose (%),[2]; A alone 30 g a.i./ha,38.4%
same,Control effect of A applied alone in a corresponding dose (%),[2]; A alone 60 g a.i./ha,52.7%
same,Control effect of A applied alone in a corresponding dose (%),[3],22.8%
same,Control effect of A applied alone in a corresponding dose (%),[4],51.5%
same,Control effect of A applied alone in a corresponding dose (%),[5],48.7%
same,Echinochloa phyllopogon 7.5 g a.i./ha,[6],9
same,Echinochloa crusgalli 7.5 g a.i./ha,[7],9
same,Control effect of A applied alone in a corresponding dose (%),[8],56.4%
same,Cotton 60 g a.i./ha,[9],0
same,Corn 60 g a.i./ha,[10],0
same,Soybean 60 g a.i./ha,[11],0
same,Peanut 60 g a.i./ha,[12],0
same,Control effect of A applied alone in a corresponding dose (%),[13],56.1%
same,Control effect of A applied alone in a corresponding dose (%),[14],18.5%
same,Control effect of A applied alone in a corresponding dose (%),[15],58.3%
same,Control effect of A applied alone in a corresponding dose (%),[16],19.8%
same,Setaria viridis 30 g a.i./ha,[17],9
same,Beckmannia syzigachne 60 g a.i./ha,[18],9
CC(C)C12CCC(C)(O1)C(OCc1c(F)cccc1Cl)C2 (centres unmarked) [Control compound C],Rice 60 g a.i./ha,[1],9
same,Direct sowing rice 60 g a.i./ha,[19],9
same,phytotoxicity to wheat,[20],unacceptable phytotoxicity
CC(C)C12CCC(C)(O1)C(OCc1ccccc1Br)C2 (centres unmarked) [Control compound A],Lolium perenne 30 g a.i./ha,[21],1 (Level 1: growth control rate is less than 10%)
